A short description of series [1]: Antagonism to the convulsions caused by 3-mercaptopropionic acid. It is filed as in vivo, mouse (CD Charles Rivers mice). The note with it: mouse, oral, 60 min before 3-mercaptopropionic acid 60 mg/kg s.c.; probit method, confidence limits in parentheses, p <= 0.05; read-out: Median effective dose (ED50) of antagonism to convulsions caused by 3-mercaptopropionic acid. As for the experimental part:
(§1) The anticonvulsant effect of the products in the mouse was evaluated on a model of convulsions caused by electric shock, and on 2 models of convulsions induced by chemical agents: bicuculline and 3-mercaptopropionic acid.
(§2) The batches were constituted by 10 CD Charles Rivers mice of weights comprised between 20 and 22 g. The products were administered orally 60 minutes before the 3-mercaptopropionic acid (60 mg/kg s.c.).

The nature of series [2]: Antagonism of the convulsions induced by electric shock. In kind it is in vivo, mouse (CD1 Charles Rivers mice). The note with it: mouse; for ED50: oral, 60 min before electroshock, probit method, confidence limits in parentheses, p <= 0.05, read-out: Median effective dose (ED50) of electric shock antagonism. The procedure: as §1
(§3) The test was slightly modified from that of Swinyard et al., J. Pharm. Exp. Ther., 1952, 106, 319-330 and Asami et al. Arzneim. Forsch., 1974, 24 (1), 1563-1568. The equipment was composed of a Racia shock generator provided with two occular electrodes delivering a current of 60 volts for 0.3 seconds. The batches were constituted by 10 CD1 Charles Rivers mice of weight comprised between 20 and 24 g. The products were administered orally, 60 minutes before the electroshock.

The nature of series [3]: Effect on spontaneous motility (Boissier and Simon activity test, actimetric cages). In kind it is in vivo, mouse (CD1 Charles Rivers female mice). To be noted: mouse; for Locomotor activity, score percent/controls: 100 mg/kg p.os., 45 min after administration, 10 min recording, * P <= 0.05, ** P <= 0.01; for Effect on spontaneous motility (in words): oral dose of 100 mg/kg. As for the experimental part: The spontaneous motility of the animals was measured by means of the activity test developed by Boissier and Simon, Arch. Int. Pharmacocyn., 1965, 158, 212-221. The equipment is composed of actimetric cages, type Apelab (26×21.5×10 cm), traversed by two light rays which fall on a photoelectric cell. The batches were constituted by CD1 Charles Rivers female mice, of weight comprised between 20 and 24 g. The animals were placed individually in cages 45 minutes after oral administration of the products at the dose of 100 mg/kg. Each traversal by a light beam was counted by an individual counter. The scores corresponding to the movements of the animals were recorded for 10 minutes, and compared with the scores taken on batches of control animals, treated only with the vehicle (5% gum arabic).

A short description of series [4]: Acute toxicity, determination of the lethal dose in the mouse. To be noted: in vivo, po, read-out: Percent toxicity (animals which die in 72 hours). As for the experimental part: The toxicity of the products according to the invention was studied: the products were administered orally, to batches of 5 CD Charles Rivers female mice, of weights comprised between 20 and 24 g. The toxicity was noted during the 72 hours which followed the administration of the products.
The results expressed as a percentage of animals which die in the 72 hours following the oral administration of the products, are noted in the preceding table.

The nature of series [5]: Potentiation of narcosis with pentobarbital (loss of righting reflex). In kind it is in vivo, mouse (CD1 Charles Rivers mice). The note with it: mouse; for Potentiation of pentobarbital, percent of animals in narcosis: products at 100 mg/kg p.os., 60 min before pentobarbital 20 mg/kg i.p. The procedure: For the purpose of evaluating the hypnogenic power of the products, their capacity to potentiate the effects of a subnarcotic dose of pentabarbital in the mouse was studied. The batches were constituted by 10 CD1 Charles Rivers mice, of weight comprised between 20 and 24 g.
The pentobarbital (20 mg/kg, i.p.) was administered 60 minutes after administration of the products. The drowsiness criterion taken was the loss of the righting reflex.

Series [6] can be described thus: Evaluation of the anticonvulsant activity (electric shock, bicucullin and 3-mercaptopropionic acid taken together). It is filed as in vivo. To be noted: mouse, oral. As for the experimental part:
as §1, §3
(§4) The batches were constituted by 10 CD Charles Rivers mice of weights comprised between 20 and 22 g. The products were administered orally, 60 minutes before the bicucullin (0.8 mg/kg, i.v.).
as §2

Series [7] can be described thus: Antagonism of convulsions and of mortality caused by bicucullin. In kind it is in vivo, mouse (CD Charles Rivers mice). The note with it: mouse. The procedure:
as §1, §4

Read-outs that look alike come from different tables or passages of the source.

For `CC1CC(Cc2ccccc2F)NC1=O` (centres unmarked) [SR 41881], the ED50 (in general, the dose that gives a 50% effect, or the effect in half of the subjects) turned out to be 46 mg/kg in series [1] and 92 mg/kg in series [2]. Also, the “Locomotor activity, score percent/controls” value in series [3] is “+41%”. Also, in series [3], the “Effect on spontaneous motility (in words)” value was “stimulating effects of the motor activity”. Besides, the values for the mortality at 72 h in series [4] (250 mg/kg p.os.), in series [4] (500 mg/kg p.os.) and in series [4] (1000 mg/kg p.os.) were 0%, 0% and 100%, respectively. The “Potentiation of pentobarbital, percent of animals in narcosis” value in series [5] turned out to be 30%.

As for `O=C1CCC(Cc2ccccc2)N1` (centres unmarked) [Compound A, 5-phenylmethyl 2-pyrrolidinone, reference compound], the ED50 in series [1] is greater than 100 mg/kg. For the same compound, in series [6], the “Anticonvulsant properties (in words)” value is “does not show anticonvulsant properties”. Moreover, in series [2] (at 200 mg/kg p.os.), the “Inhibition of electric shock convulsions” value is given as 40%. In series [3], the “Locomotor activity, score percent/controls” value is reported as “+1.2%”. The “Effect on spontaneous motility (in words)” value in series [3] is listed as “does not act on the spontaneous motility”. For the same compound, the mortality at 72 h in series [4] (250 mg/kg p.os.) turned out to be 0%; in series [4] (500 mg/kg p.os.), 0%; in series [4] (1000 mg/kg p.os.), 60%. Further, the “Antagonism to bicucullin mortality” value in series [7] (at 200 (mg/kg p.o.)) was 30%. Moreover, in series [7] (oral, 60 min before bicucullin 0.8 mg/kg i.v., probit method, confidence limits in parentheses, p < 0.05), the “Median effective dose (ED50) of the antagonism to the effects of bicucullin: Tonic convulsions” value is “inactive at 200”. In series [5] (oral), the “Hypnogenic effect / potentiation of narcosis with pentobarbital (in words)” value was “devoid of hyponogenic effect”. Moreover, the “Potentiation of pentobarbital, percent of animals in narcosis” value in series [5] turned out to be 0%.

In the case of `CC1CC(Cc2ccccc2Cl)NC1=O` (centres unmarked) [SR 41678], the ED50 in series [1] stood at 53 mg/kg; in series [2], 44 mg/kg; in series [7] (oral, 60 min before bicucullin 0.8 mg/kg i.v., probit method, confidence limits in parentheses, p < 0.05, read-out: Median effective dose (ED50) of the antagonism to the effects of bicucullin: Tonic convulsions), 76 mg/kg. Moreover, the “Locomotor activity, score percent/controls” value in series [3] was “+45%”. In series [3], the “Effect on spontaneous motility (in words)” value is given as “stimulating effects of the motor activity”. In addition, the figures for the mortality at 72 h in series [4] (250 mg/kg p.os.), in series [4] (500 mg/kg p.os.) and in series [4] (1000 mg/kg p.os.) were 0%, 0% and 60%, respectively. The “Potentiation of pentobarbital, percent of animals in narcosis” value in series [5] amounted to 30%.

As to `CC1(C)CC(Cc2ccccc2F)NC1=O` (centres unmarked) [SR 41680], the values for the ED50 in series [1] and in series [2] were 54 mg/kg and 51 mg/kg, respectively. Further, the “Locomotor activity, score percent/controls” value in series [3] was “+99%”. In series [3], the “Effect on spontaneous motility (in words)” value is listed as “stimulating effects of the motor activity”. The mortality at 72 h in series [4] (250 mg/kg p.os.) and in series [4] (500 mg/kg p.os.) was 0% each time.

The record behind these values is patent publication US4604383A, “Pyrrolidin-2-ones and medicaments containing them” (Societe Anonyme Styled: SANOFI, priority 1983, dated 1986).
